Test results from the supplement of paper PMC9265050, “Inhibition of RNA Binding in SND1 Increases the Levels of miR-1-3p and Sensitizes Cancer Cells to Navitoclax” (Cancers, 2022).

System: SW480
Experiment: drug sensitivity score (DSS, integrated dose-response area); higher = more sensitive (stronger viability reduction); extreme values may be limits of the assay
In short: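 The drug sensitivity score is the integrated area under a fitted non-linear dose–response model. It was derived from SW480 cells with doxycycline-inducible control or SND1-targeting shRNA, induced with 0.1 µg/mL doxycycline for 7 days and plated at 1000 cells per well on 384-well plates of 525 commercially available small-molecule inhibitors at five concentrations. CellTiter-Glo measured viability after 72 h.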

[1] = shRNA: SND1 shRNA1 (SND1 silenced)
[2] = shRNA: SND1 shRNA2 (SND1 silenced)
[3] = shRNA: control shRNA (non-targeting)

| Compound | drug sensitivity score [1] [DSS] | drug sensitivity score [2] [DSS] | drug sensitivity score [3] [DSS] |
| --- | --- | --- | --- |
| COc1cc(Nc2ncc(F)c(Nc3ccc4c(n3)NC(=O)C(C)(C)O4)n2)cc(OC)c1OC [Tamatinib] | 0.4 | 0.4 | 0 |
| CC/C(=C(\c1ccccc1)c1ccc(OCCN(C)C)cc1)c1ccccc1 [Tamoxifen] | 5 | 4.4 | 5.9 |
| COc1cc2c(N3CCN(C(=O)Nc4ccc(OC(C)C)cc4)CC3)ncnc2cc1OCCCN1CCCCC1 [Tandutinib] | 0.5 | 4.3 | 3 |
| C=CCNC1=C2C[C@@H](C)C[C@H](OC)[C@H](O)[C@@H](C)/C=C(\C)[C@H](OC(N)=O)[C@@H](OC)/C=C\C=C(/C)C(=O)NC(=CC1=O)C2=O [Tanespimycin] | 10.5 | 11.7 | 16.1 |
| O[C@H]1CC[C@H](Nc2ncc3nc(Nc4c(F)cc(F)cc4F)n([C@H]4CCOC4)c3n2)CC1 [Tanzisertib] | 2.9 |  | 3.4 |
| C[C@@H](C(=O)O)c1ccc(-c2ccccc2)c(F)c1 [Tarenflurbil] | 0 | 0 | 0 |
| Cc1nc(-c2cn3c(n2)-c2ccc(-c4cnn(C(C)(C)C(N)=O)c4)cc2OCC3)n(C(C)C)n1 [Taselisib] | 0 | 0.7 | 0 |
| COc1cccc2c1c(O)c(C(=O)N(C)c1ccc(C(F)(F)F)cc1)c(=O)n2C [Tasquinimod] | 3.7 | 0 | 2.3 |
| CCN(c1cc(-c2ccc(CN3CCOCC3)cc2)cc(C(=O)NCc2c(C)cc(C)[nH]c2=O)c1C)C1CCOCC1 [Tazemetostat] | 3.8 | 0.8 | 2.2 |
| CNC(=O)c1cc(COc2nnc(Nc3ccc(Cl)cc3)c3ccoc23)ccn1 [Telatinib] | 0 | 0 | 0 |
| Cn1nnc2c(C(N)=O)ncn2c1=O [Temozolomide] | 0 | 5.2 | 2.4 |
| CO[C@H]1C[C@@H]2CC[C@@H](C)[C@@](O)(O2)C(=O)C(=O)N2CCCC[C@H]2C(=O)O[C@H]([C@H](C)C[C@@H]2CC[C@@H](OC(=O)C(C)(CO)CO)[C@H](OC)C2)CC(=O)[C@H](C)/C=C(\C)[C@@H](O)[C@@H](OC)C(=O)[C@H](C)C[C@H](C)/C=C/C=C/C=C/1C [Temsirolimus] | 11.9 |  | 9.5 |
| COc1cc([C@@H]2c3cc4c(cc3[C@@H](O[C@@H]3O[C@@H]5CO[C@@H](c6cccs6)O[C@H]5[C@H](O)[C@H]3O)[C@H]3COC(=O)[C@H]23)OCO4)cc(OC)c1O [Teniposide] | 9.1 | 6 | 7.8 |
| O=C1CCC(N2C(=O)c3ccccc3C2=O)C(=O)N1 (configuration not stated) [Thalidomide] | 0.5 | 0.1 | 2 |
| S=P(N1CC1)(N1CC1)N1CC1 [Thio-TEPA] | 0 | 0 | 0 |
| Nc1nc2[nH]cnc2c(=S)[nH]1 [Thioguanine] | 9.3 | 5.9 | 8.4 |
| O=c1sn(-c2cccc3ccccc23)c(=O)n1Cc1ccccc1 [Tideglusib] | 0.1 | 1.2 | 0.1 |
| Cn1cncc1[C@@](N)(c1ccc(Cl)cc1)c1ccc2c(c1)c(-c1cccc(Cl)c1)cc(=O)n2C [Tipifarnib] | 8.8 | 8.7 | 10.2 |
| O=C1NC(=O)[C@@H](c2cn3c4c(cccc24)CCC3)[C@@H]1c1c[nH]c2ccccc12 [Tivantinib] | 6.4 | 4 | 5.4 |
| COc1cc2nccc(Oc3ccc(NC(=O)Nc4cc(C)on4)c(Cl)c3)c2cc1OC [Tivozanib] | 3.8 | 3.6 | 5 |
| C[C@@H]1CCN(C(=O)CC#N)C[C@@H]1N(C)c1ncnc2[nH]ccc12 [Tofacitinib] | 0 | 0 | 0 |
| CC[C@@]1(O)C(=O)OCc2c1cc1n(c2=O)Cc2cc3c(CN(C)C)c(O)ccc3nc2-1 [Topotecan] | 11.3 | 8.8 | 9.7 |
| CN(C)CCOc1ccc(/C(=C(/CCCl)c2ccccc2)c2ccccc2)cc1 [Toremifene] | 2.6 | 1.7 | 3.1 |
| CC(C)C[C@@H](C(=O)N[C@H](C(=O)OC1CCCC1)c1ccccc1)[C@H](O)C(=O)NO [Tosedostat] | 4.4 | 3.2 | 3.2 |
| Cc1cc(Nc2cc(N3CCN(C)CC3)nc(Sc3ccc(NC(=O)C4CC4)cc3)n2)n[nH]1 [Tozasertib] | 8.6 |  | 4.8 |

| Compound | drug sensitivity score [1] [DSS] | drug sensitivity score [2] [DSS] | drug sensitivity score [3] [DSS] |
| --- | --- | --- | --- |
| CC(=O)Nc1cccc(-n2c(=O)n(C3CC3)c(=O)c3c(Nc4ccc(I)cc4F)n(C)c(=O)c(C)c32)c1 [Trametinib] | 19.3 | 12.7 | 8.1 |
| CC1=C(/C=C/C(C)=C/C=C/C(C)=C/C(=O)O)C(C)(C)CCC1 [Tretinoin] | 0 | 0 | 0 |
| NC(=S)N/N=C/c1ncccc1N [Triapine] | 2.8 |  | 2.4 |
| O=C(CCCCCCC(=O)Nc1ccc([C@H]2O[C@@H](CSc3nc(-c4ccccc4)c(-c4ccccc4)o3)C[C@@H](c3ccc(CO)cc3)O2)cc1)NO [Tubacin] | 4.1 | 2.7 | 6.2 |
| CN1CCc2c(c3ccccc3n2Cc2ccc(C(=O)NO)cc2)C1 [Tubastatin A] | 4.3 | 5 | 6.4 |
| CN[C@@H]1C[C@H]2O[C@@](C)([C@@H]1OC)n1c3ccccc3c3c4c(c5c6ccccc6n2c5c31)C(=O)N[C@H]4O [UCN-01] | 24 | 25 | 25.4 |
| COC(=O)c1ccc2c(c1)[nH]c1ncnc(NCCCN3CCCCC3)c12 [UM729] | 1.8 | 2.8 | 3.3 |
| O=C(O)CSc1cc(NS(=O)(=O)c2ccc(Br)cc2)c2ccccc2c1O [UMI-77] | 14.5 | 13.4 | 15.8 |
| COc1cc2c(NC3CCN(C(C)C)CC3)nc(C3CCCCC3)nc2cc1OCCCN1CCCC1 [UNC0638] | 9.1 | 6.5 | 9.7 |
| COc1cc2c(NC3CCN(C(C)C)CC3)nc(N3CCC(F)(F)CC3)nc2cc1OCCCN1CCCC1 [UNC0642] | 4.7 | 8.7 | 8.4 |
| O=C(c1ccc(C(=O)N2CCC(N3CCCC3)CC2)c(Nc2ccccc2)c1)N1CCC(N2CCCC2)CC1 [UNC1215] | 2.6 | 1.9 | 1.1 |
| CCCCNc1ncc(C(=O)NCc2ccc(-n3ccnc3)cc2)c(NC2CCC(O)CC2)n1 (configuration not stated) [UNC2881] | 0 | 0 | 0 |
| NC(=O)c1cccc(-c2cccc(OC(=O)NC3CCCCC3)c2)c1 [URB597] | 0.2 |  | 2.6 |
| CC(C)Nc1cc(-c2c[nH]c(C(=O)N[C@H](CO)c3cccc(Cl)c3)c2)c(Cl)cn1 [Ulixertinib] | 10.2 | 2.3 | 7.6 |
| Cn1ncc(Cl)c1-c1cc(C(=O)N[C@H](CN)Cc2ccc(F)c(F)c2)oc1Cl [Uprosertib] | 0 | 0.3 | 0.2 |
| Oc1ncc(N(CCCl)CCCl)c(O)n1 [Uramustine] | 0 | 0.1 | 0 |
| CS(=O)(=O)c1ccc(-c2cnc(N)c(C(=O)Nc3ccccc3)n2)cc1 [VE-821] | 0 |  | 0.8 |
| O=C(O)CC1CC(c2ccccc2)=NO1 (configuration not stated) [VGX-1027] | 0.2 | 2.3 | 0 |
| CNC(=O)c1ccccc1Nc1cc(Nc2ccc(N3CCOCC3)cc2OC)ncc1C(F)(F)F [VS-4718] | 4.8 | 3.8 | 4.1 |
| O=c1ncn2nc(Sc3ccc(F)cc3F)ccc2c1-c1c(Cl)cccc1Cl [VX 745] | 1.4 |  | 3.4 |
| CCCC(CCC)C(=O)O [Valproic acid] | 0 |  | 0 |
| CCCCC(=O)OCC(=O)[C@]1(O)Cc2c(O)c3c(c(O)c2[C@@H](O[C@H]2C[C@H](NC(=O)C(F)(F)F)[C@H](O)[C@H](C)O2)C1)C(=O)c1c(OC)cccc1C3=O [Valrubicin] | 8.7 | 7.8 | 8.2 |
| COc1cc2/c(=N/c3ccc(Br)cc3F)nc[nH]c2cc1OCC1CCN(C)CC1 [Vandetanib] | 2.1 | 5.8 | 5.9 |
| CCc1c(C(=O)C(N)=O)c2c(OCC(=O)O)cccc2n1Cc1ccccc1 [Varespladib] | 0 | 1.1 | 0 |
| C[C@@H]1COC(Nc2ccc3ncnc(Nc4ccc(OCc5nccs5)c(Cl)c4)c3c2)=N1 [Varlitinib] | 0.4 | 1.2 | 3.5 |
